Data: patent US8637523B2, “Compounds for the reduction of beta-amyloid production” (Bristol-Myers Squibb Company, priority 2010, dated 2014)
pIC50: −log10 of the molar value.

These molecules were tested on Aβ42 (assay: Cellular assay for inhibition of Aβ1-42 production (H4 APP751 SWE clone 8.20)). Conditions: 19 h, H4 APP751 SWE clone 8.20 cells, 19 h incubation; read-out: Activity Rating (Aβ42 cellular IC50), class symbol.
Format: cell-based
How it was run: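 Cells incubate with compound for 19 h (37 °C, 5% CO2), the plate is briefly spun, and antibody mix is added straight to the wells: Wallac-conjugated 565 against the Aβ42 C-terminal neoepitope and APC-conjugated 26D6 against the Aβ N-terminus. After overnight sealing at 4 °C, signal is counted and IC50 fitted.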

Row | pIC50 | Molecule
1 | 6.00 to 7.00 | N#Cc1ccc2cc1OCCCCCc1nc(nc3c1CCC3c1ccccc1)N2 (stereo not shown) [Example 38B, 7-cyano-18-phenyl-10,11,12,13,14,16,17,18-octahydro-15,2-(azeno)-8,4-(metheno)cyclopenta[h][1,10,12]oxadiazacycloheptadecine]
2 | 7.00 to 8.00 | Cc1ncn(-c2ccc3cc2OCCN(C)CCNc2nc(nc4c2CCC4c2ccc(F)cc2)N3)n1 (stereo not shown) [Example 56B, 19-(4-fluorophenyl)-12-methyl-7-(3-methyl-1H-1,2,4-triazol-1-yl)-11,12,13,14,15,17,18,19-octahydro-10H-16,2-(azeno)-8,4-(metheno)cyclopenta[i][1,4,7,11,13]oxatetraazacyclooctadecine]
3 | > 8.00 | Cc1ncn(-c2ccc3cc2OCCCNc2nc(nc4c2CCC4c2ccc(F)cc2F)N3)n1 (stereo not shown) [Example 63A, 17-(2,4-difluorophenyl)-7-(3-methyl-1H-1,2,4-triazol-1-yl)-11,12,13,15,16,17-hexahydro-10H-14,2-(azeno)-8,4-(metheno)cyclopenta[g][1,5,9,11]oxatriazacyclohexadecine]
4 | 7.00 to 8.00 | Cc1ncn(-c2ccc3cc2OCCNCCNc2nc(nc4c2CCC4c2ccc(F)cc2)N3)n1 (single isomer, unassigned) [Example 55B, 19-(4-fluorophenyl)-7-(3-methyl-1H-1,2,4-triazol-1-yl)-11,12,13,14,15,17,18,19-octahydro-10H-16,2-(azeno)-8,4-(metheno)cyclopenta[i][1,4,7,11,13]oxatetraazacyclooctadecine]

Further lines, the molecule ahead of its results:

Row | Molecule | pIC50
5 | CC1C/C=C\COc2cc(ccc2-n2cnc(Cl)c2)Nc2nc(c3c(n2)C(c2ccccc2)CC3)N1 (stereo not shown) [Example 6B, (11Z)-7-(4-chloro-1H-imidazol-1-yl)-14-methyl-19-phenyl-3,10,13,14,15,17,18,19-octahydro-2,16-(azeno)-8,4-(metheno)cyclopenta[j][1,7,9,13]oxatriazacyclooctadecine] | 7.00 to 8.00
6 | CN1C/C=C\COc2cc(ccc2C#N)Nc2nc3c(c1n2)CCC3c1ccc(F)cc1F (stereo not shown) [Example 28B, (11Z)-7-cyano-18-(2,4-difluorophenyl)-14-methyl-10,13,14,16,17,18-hexahydro-15,2-(azeno)-8,4-(metheno)cyclopenta[h][1,6,10,12]oxatriazacycloheptadecine] | 6.00 to 7.00
7 | Clc1cn(-c2ccc3cc2OCCOCCNc2nc(nc4c2CCC4c2ccccc2)N3)cn1 (stereo not shown) [Example 8A, 7-(4-chloro-1H-imidazol-1-yl)-19-phenyl-10,11,13,14,15,17,18,19-octahydro-16,2-(azeno)-8,4-(metheno)cyclopenta[i][1,4,7,11,13]dioxatriazacyclooctadecine] | > 8.00

Same assay, conditions: 19 h, H4 APP751 SWE clone 8.20 cells, 19 h incubation; unit inferred; read-out: Activity Rating (Aβ42 cellular IC50), numeric value

Row | pIC50 | Molecule
8 | 7.06 | Cc1ncnn1-c1ccc2cc1OCCCCN(C)c1nc(nc3c1CCC3c1ccccc1)N2 (stereo not shown) [Example 48B, 14-methyl-7-(5-methyl-1H-1,2,4-triazol-1-yl)-18-phenyl-10,11,12,13,14,16,17,18-octahydro-15,2-(azeno)-8,4-(metheno)cyclopenta[h][1,6,10,12]oxatriazacycloheptadecine]
9 | 7.89 | CN1C/C=C\COc2cc(ccc2C#N)Nc2nc3c(c1n2)CCC3c1ccc(F)cc1F (stereo not shown) [Example 28A, (11Z)-7-cyano-18-(2,4-difluorophenyl)-14-methyl-10,13,14,16,17,18-hexahydro-15,2-(azeno)-8,4-(metheno)cyclopenta[h][1,6,10,12]oxatriazacycloheptadecine]
10 | 7.60 | Cc1ncn(-c2ccc3cc2OCCCNc2nc(nc4c2CCC4c2ccc(F)cc2F)N3)n1 (stereo not shown) [Example 63B, 17-(2,4-difluorophenyl)-7-(3-methyl-1H-1,2,4-triazol-1-yl)-11,12,13,15,16,17-hexahydro-10H-14,2-(azeno)-8,4-(metheno)cyclopenta[g][1,5,9,11]oxatriazacyclohexadecine]

Same assay, conditions: H4 APP751 SWE clone 8.20 cells, 19 h incubation; read-out: Activity Rating (Aβ42 cellular IC50), class symbol

Row | pIC50 | Molecule
11 | > 8.00 | Cc1ncnn1-c1ccc2cc1OCC=CCNc1nc(nc3c1CCC3c1ccc(F)cc1F)N2 (stereo not shown) [Example 54A, (11E)-18-(2,4-difluorophenyl)-7-(5-methyl-1H-1,2,4-triazol-1-yl)-10,13,14,16,17,18-hexahydro-15,2-(azeno)-8,4-(metheno)cyclopenta[h][1,6,10,12]oxatriazacycloheptadecine]
12 | 7.00 to 8.00 | Cc1ncn(-c2ccc3cc2OCCNCCNc2nc(nc4c2CCC4c2ccc(F)cc2)N3)n1 (single isomer, unassigned) [Example 55A, 19-(4-fluorophenyl)-7-(3-methyl-1H-1,2,4-triazol-1-yl)-11,12,13,14,15,17,18,19-octahydro-10H-16,2-(azeno)-8,4-(metheno)cyclopenta[i][1,4,7,11,13]oxatetraazacyclooctadecine]
13 | 7.00 to 8.00 | Cc1ncnn1-c1ccc2cc1OCC=CCNc1nc(nc3c1CCC3c1ccc(F)cc1F)N2 (stereo not shown) [Example 54B, (11E)-18-(2,4-difluorophenyl)-7-(5-methyl-1H-1,2,4-triazol-1-yl)-10,13,14,16,17,18-hexahydro-15,2-(azeno)-8,4-(metheno)cyclopenta[h][1,6,10,12]oxatriazacycloheptadecine]
14 | 7.00 to 8.00 | (11Z)-18-(2,4-difluorophenyl)-7-(3-methyl-1H-1,2,4-triazol-1-yl)-10,13,14,16,17,18-hexahydro-15,2-(azeno)-8,4-(metheno)cyclopenta[h][1,6,10,12]oxatriazacycloheptadecine [Example 51B]
15 | 7.00 to 8.00 | N#Cc1ccc2cc1OCC(O)CCNc1nc(nc3c1CCC3c1ccc(F)cc1)N2 (single isomer, unassigned) [Example 73C, 7-cyano-18-(4-fluorophenyl)-10,11,12,13,14,16,17,18-octahydro-15,2-(azeno)-8,4-(metheno)cyclopenta[h][1,6,10,12]oxatriazacycloheptadecin-11(3H)-ol]

Second part, the molecule before the results:

Row | Molecule | pIC50
16 | CN1CCNc2nc(nc3c2CCC3c2ccc(F)cc2)Nc2ccc(C#N)c(c2)OCC1 (single isomer, unassigned) [Example 27B, 7-cyano-19-(4-fluorophenyl)-12-methyl-11,12,13,14,15,17,18,19-octahydro-10H-16,2-(azeno)-8,4-(metheno)cyclopenta[i][1,4,7,11,13]oxatetraazacyclooctadecine] | 6.00 to 7.00
17 | Clc1cn(-c2ccc3cc2OCCCCNc2nc(nc4c2CCC4c2ccccc2)N3)cn1 (stereo not shown) [Example 12B, 7-(4-chloro-1H-imidazol-1-yl)-18-phenyl-10,11,12,13,14,16,17,18-octahydro-15,2-(azeno)-8,4-(metheno)cyclopenta[h][1,6,10,12]oxatriazacycloheptadecine] | 7.00 to 8.00
18 | Clc1cn(-c2ccc3cc2OC/C=C\CCc2nc(nc4c2CCC4c2ccccc2)N3)cn1 (single isomer, unassigned) [Example 16B, (11Z)-7-(4-chloro-1H-imidazol-1-yl)-18-phenyl-10,13,14,16,17,18-hexahydro-15,2-(azeno)-8,4-(metheno)cyclopenta[h][1,10,12]oxadiazacycloheptadecine] | 7.00 to 8.00
19 | N#Cc1ccc2cc1OCC=CCNc1nc(nc3c1CCC3c1ccc(F)cc1F)N2 (stereo not shown) [Example 24A, (11Z)-7-cyano-18-(2,4-difluorophenyl)-10,13,14,16,17,18-hexahydro-15,2-(azeno)-8,4-(metheno)cyclopenta[h][1,6,10,12]oxatriazacycloheptadecine] | > 8.00
